Source: patent publication US7008786B2, “Microorganism producing L-lysine and processes for producing L-lysine using the same” (priority 2000, dated 2006)

How the values were obtained:
[1] = test system: Corynebacterium glutamicum CH77; test: Resistance to monensin: growth on minimal agar plate medium containing monensin; format: cell-based; settings: Monensin 7,000 μg/l, 4 days, parent strain CH77
Experimental: (§1) The parent CH77 strain and the mutant CJM107 strain were tested for their resistance to monensin by the following method. Cells were grown in a Luria-Bertani (LB) liquid medium for 16 hours. Then, the cells were washed twice with a sterilized physiological saline and then, appropriately diluted and cultivated on a minimal agar plate medium [glucose 10 g, (NH4)2SO4 2 g, urea 2 g, KH2PO4 1 g, K2HPO4 3 g, MgSO4.7H2O 0.5 g, FeSO4.7H2O 10 mg, MnSO4.7H2O 10 mg, biotin 100 μg, Thiamin.HCl 100 μg, CaCl2.2H2O 100 μg, Na2B4O7.10H2O 80 μg, (NH4)6MoO27.4H2O 40 μg, ZnSO4.7H2O 10 μg, CuSO4.7H2O 10 μg, MnCl2.4H2O 10 μg, FeCl3.6H2O 1 mg, agar 20 g, if necessary L-leucine 0.1 g, if necessary L-threonine 0.1 g, if necessary L-methionine 0.1 g, per distilled water of 11 (pH 7.0)] containing monensin of 7,000 μg/1 for 4 days.

[2] = test system: Corynebacterium glutamicum CJM107; test: as above; format: cell-based; settings: Monensin 7,000 μg/l, 4 days, mutant strain CJM107
Experimental: as §1

CC[C@@]1([C@@H]2O[C@@H]([C@H]3O[C@@](O)(CO)[C@H](C)C[C@@H]3C)C[C@@H]2C)CC[C@H]([C@]2(C)CC[C@]3(C[C@H](O)[C@@H](C)[C@@H]([C@@H](C)[C@@H](OC)[C@H](C)C(=O)O)O3)O2)O1 [Monensin, monensin]
Growth of CH77 in the presence of monensin [1]: −
Growth of CJM107 in the presence of monensin [2]: +++
